Counter-ions that a name gives are not always drawn.
How the values were obtained:
isolated rabbit atrium = test: Isolated rabbit atrium, increase in functional refractory period (antiarrhythmic); details: Oryctolagus cuniculus; 10^-5 molar
Description: The compounds of the invention are useful as antiarrhythmic agents because of their ability to alleviate cardiac arrhythmias. […] 198] wherein the compounds effect an increase in the functional refractory period. Compounds are dissolved in Krebs-Henseleit solution, and the percent change in the functional refractory period is monitored with an oscilloscope. […] Similarly at a concentration of 10^-^6 molar 1-(3-dimethylaminopropyl)-2-(p-bromophenyl)-4,5,6,7-tetrahydroindole hydrochloride and 1-(2-methylaminoethyl)-2-phenyl-1,4,5,6,7,8-hexahydrocyclohepta[b]pyrrole hydrochloride each effect a 150% increase in the functional refractory period.

[1] = test system: spontaneous hypertensive rat; test: Lowering of blood pressure in the spontaneous hypertensive rat, indirect tail cuff method; format: in vivo; details: 100 mg/kg of body weight
Description: The compounds of this invention are also useful as antihypertensive agents because of their ability to lower blood pressure in mammals. […] 135. For example, at a dose of 100 mg/kg of body weight, the compounds shown in Table III below effect the corresponding decrease in systolic blood pressure.

central nervous system = test: Mouse observation procedure of S. Irwin, central nervous system depressant effects (tranquilizer); format: in vivo; details: male COBS mice, behavior and reflex depression, muscle relaxation, read-out: minimum effective dose (MED)/Kilogram of body weight
Description: The compounds of the invention are useful as tranquilizers because of their depressant effects on the central nervous system. The depressant effects on the central nervous system were evaluated according to the mouse observation procedure of S. Irwin, Psychopharmacologia, 13, 222 (1968). Male COBS mice are dosed with the drug, and its effects on behavior and reflex depression together with muscle relaxation determined by the degree of deviation from control scores, with activity expressed in terms of minimum effective dose (MED). The effectiveness of compounds of the invention as tranquilizers is illustrated in Table I below.

[2] = test system: carrageenin-induced rat paw edema; test: Carrageenin-induced rat paw edema antiinflammatory assay; format: in vivo; details: 200 mg/kg of body weight
Text: The compounds of this invention are useful as antiinflammatory agents because of their ability to suppress inflammation in mammals. […] Exp. Biol. Med. III, 544 (1962)].

Compound	activation at 10 µM (isolated rabbit atrium)	decrease in systolic blood pressure [1]	minimal effective dose (central nervous system)	inhibition in vivo at 200 mg/kg [2]
CNCCCn1c(-c2ccccc2)cc2c1CCCCC2 [Example 39, 1-(3-methylaminopropyl)-2-phenyl-1,4,5,6,7,8-hexahydrocyclohepta[b]pyrrole . HCl]	214%	42 mm Hg	50 mg/kg	
CCN(CC)CCCn1c(-c2ccccc2)cc2c1CCCCC2.Cl [Example 41, 1-(3-diethylaminopropyl)-2-phenyl-1,4,5,6,7,8-hexahydrocyclohepta[b]pyrrole hydrochloride]	264%	49 mm Hg	50 mg/kg	50%
